From patent US12065443B2, “Compounds and pharmaceutical compositions thereof for the treatment of diseases” (priority 2017, dated 2024)

Legend:
[1] = test system: LPS-induced TNFα secretion in monocyte-derived macrophages (MdM); assay: MdM assay: LPS-triggered TNFα (ELISA); assay type: cell-based, human; conditions: Homo sapiens, Macrophage, LPS-triggered TNFα inhibition
Experimental: This assay evaluates illustrative compounds of the invention for their inhibition of LPS-induced TNFα and LPS triggered IL-10 secretion in monocyte-derived macrophages.
PBMCs are isolated from human blood samples (buffycoats). The buffy coat is aseptically transferred into a 50 mL Falcon tube, and diluted 1/2 in PBS. Falcon tubes are filled with 20 mL Lymphoprep™, on top of which 25 mL of the buffy coat is carefully added, tubes are centrifuged for 35 min at 400 g in temperature controlled centrifuge, without brake, at 25° C. PBMCs are aspirated from the white interface layer between sample and Lymphoprep™. PBMCs are washed five times in PBS.
PBMCs are centrifuged at 300×g for 10 min and resuspended at a density of 1.0E07 cells/80 μL Miltenyi buffer (PBS, pH 7.4, 1% FBS, 2 mM EDTA).
Starting from this point of the protocol all steps are performed on ice. 20 μL of CD14+ micro-beads are added per 1.0E07 cells, the tube is mixed and incubated for 15 min in the fridge at 4° C. Cell suspension volume is adjusted to total volume of 100 mL using Miltenyi buffer, mixed gently and subsequently centrifuged for 10 min at 300× g. Supernantant is discarded and cell pellet is resuspended in 12 mL of Miltenyi buffer.
Four LS columns are placed in the MACS Separator (magnet) from Miltenyi Biotec, and are prewet by rinsing with 3 mL of MACS buffer per column. Three mL of cell suspension is added onto the column (max 1*10^8 of labelled cells/column), and columns are subsequently washed 3 times with 3 mL of Miltenyi buffer.
The columns are removed from the magnets, and 5 mL of Miltenyi buffer are added to the column to flush out the CD14+ fraction by pushing the plunger into the column. The flushed fractions are collected in a fresh 50 mL Falcon and volume is adjusted to 30 mL using Miltenyi buffer, cells are centrifuged for 10 min at 300× g. The obtained cell pellet is resuspended in 10 mL RPMI w/o FBS, and cell density is determined using a hematologic analyser (Sysmex XS-500i).
On day 10, MdMs are triggered and compound is added.
A compound dilution plate is made in 100% DMSO by 3-fold dilution of 10 mM stock solution. An intermediate dilution plate (10× final concentration) is made by diluting the compound dilution plate 50-fold in RPMI medium.
Medium is carefully removed from cell plates using multichannel pipette, and replaced by 80 μL fresh medium. 10 μL of the 10× final concentration compound is added to the cells and incubated for 1 hour at 37° C. before addition of trigger. No trigger conditions/trigger conditions are spiked with equal final DMSO concentrations of 0.2% DMSO. 10 μL of 10×LPS (final conc. 200 ng/mL) solution are added to all wells except for the ‘no trigger wells’ where 10 μL medium is added. Supernatant is collected after 2 h (IL-10 determination) and after 20 h (TNFα determination) of LPS triggering.
The plate is then washed once with PBST (PBS+0.05% Tween20) and once with PBS followed by the addition of 100 μL of blocking buffer (1% Bovine Serum Albumin (BSA)-5% Sucrose) and plates are sealed and incubated for at least 4 h at RT. After washing the plate once with PBST and once with PBS, 40 μL of standard or sample are added (TNFα standard curve is prepared using a 1/2 serial dilution starting from 16000 pg/mL; dilutions are made in dilution buffer (PBS+1% BSA)). Plates are washed twice with PBST, and once with PBS, after which 35 μL of the detection antibody is added (final concentration 0.25 μg/mL diluted in dilution buffer) and plates are incubated for at least 2 h at RT. Plates are washed twice with PBST, and once with PBS, where after 35 μL of Strep-HRP conjugate (0.5 μg/mL final concentration diluted in dilution buffer) is added. Plates are incubated in the dark, at RT for at least 45 min but no longer than 1 hour. Plates are washed twice with PBST, and once with PBS.

SIK3 = target: T1, SIK3 (Homo sapiens, UniProt Q9Y2K2); assay: biochemical
T1 construct: purchased SignalChem S12-11G-100
Method in brief: (§1)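 AMARA peptide phosphorylation by SIK1–3 is quantified through ^33P uptake from a labeled/unlabeled ATP blend. Staurosporine at 10 μM final defines full inhibition, 1% DMSO the uninhibited signal. Quench uses phosphoric acid; counting follows filter capture.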

SIK1 = target: T2, SIK1 (Homo sapiens, UniProt P57059); assay: biochemical; conditions: 33P radioactive SIK kinase assay, AMARA peptide, 10 μM ATP; read-out: SIK1 IC50
T2 construct: purchased Carna Biosciences 02-131
Method in brief: as §1

SIK2 = target: T3, SIK2 (Homo sapiens, UniProt Q9H0K1); assay: biochemical; conditions: 33P radioactive SIK kinase assay, AMARA peptide, 10 μM ATP
T3 construct: purchased ThermoFisher Scientific PV4792
Method in brief: as §1

T2 sequence (P57059 whole entry): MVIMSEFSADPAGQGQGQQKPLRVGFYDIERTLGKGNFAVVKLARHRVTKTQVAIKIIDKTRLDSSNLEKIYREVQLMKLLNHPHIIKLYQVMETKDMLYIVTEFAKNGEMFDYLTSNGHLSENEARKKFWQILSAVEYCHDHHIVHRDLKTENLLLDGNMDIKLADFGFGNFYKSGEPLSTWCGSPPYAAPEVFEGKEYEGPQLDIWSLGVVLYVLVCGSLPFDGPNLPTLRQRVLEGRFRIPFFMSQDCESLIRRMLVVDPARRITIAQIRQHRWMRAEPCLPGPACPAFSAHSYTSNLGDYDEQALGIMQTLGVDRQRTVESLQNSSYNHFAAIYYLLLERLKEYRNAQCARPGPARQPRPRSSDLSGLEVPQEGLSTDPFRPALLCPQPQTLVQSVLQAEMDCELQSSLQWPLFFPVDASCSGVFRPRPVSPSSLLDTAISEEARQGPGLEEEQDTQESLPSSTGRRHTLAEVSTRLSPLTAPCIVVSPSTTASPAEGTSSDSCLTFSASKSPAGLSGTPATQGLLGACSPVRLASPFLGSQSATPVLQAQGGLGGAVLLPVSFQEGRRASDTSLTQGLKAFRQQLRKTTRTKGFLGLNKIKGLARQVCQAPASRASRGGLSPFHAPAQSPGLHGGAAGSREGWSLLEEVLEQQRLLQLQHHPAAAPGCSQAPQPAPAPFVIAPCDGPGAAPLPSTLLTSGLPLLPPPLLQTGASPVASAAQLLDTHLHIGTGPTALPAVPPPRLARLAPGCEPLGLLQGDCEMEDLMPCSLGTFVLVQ
T1 sequence (Q9Y2K2 whole entry): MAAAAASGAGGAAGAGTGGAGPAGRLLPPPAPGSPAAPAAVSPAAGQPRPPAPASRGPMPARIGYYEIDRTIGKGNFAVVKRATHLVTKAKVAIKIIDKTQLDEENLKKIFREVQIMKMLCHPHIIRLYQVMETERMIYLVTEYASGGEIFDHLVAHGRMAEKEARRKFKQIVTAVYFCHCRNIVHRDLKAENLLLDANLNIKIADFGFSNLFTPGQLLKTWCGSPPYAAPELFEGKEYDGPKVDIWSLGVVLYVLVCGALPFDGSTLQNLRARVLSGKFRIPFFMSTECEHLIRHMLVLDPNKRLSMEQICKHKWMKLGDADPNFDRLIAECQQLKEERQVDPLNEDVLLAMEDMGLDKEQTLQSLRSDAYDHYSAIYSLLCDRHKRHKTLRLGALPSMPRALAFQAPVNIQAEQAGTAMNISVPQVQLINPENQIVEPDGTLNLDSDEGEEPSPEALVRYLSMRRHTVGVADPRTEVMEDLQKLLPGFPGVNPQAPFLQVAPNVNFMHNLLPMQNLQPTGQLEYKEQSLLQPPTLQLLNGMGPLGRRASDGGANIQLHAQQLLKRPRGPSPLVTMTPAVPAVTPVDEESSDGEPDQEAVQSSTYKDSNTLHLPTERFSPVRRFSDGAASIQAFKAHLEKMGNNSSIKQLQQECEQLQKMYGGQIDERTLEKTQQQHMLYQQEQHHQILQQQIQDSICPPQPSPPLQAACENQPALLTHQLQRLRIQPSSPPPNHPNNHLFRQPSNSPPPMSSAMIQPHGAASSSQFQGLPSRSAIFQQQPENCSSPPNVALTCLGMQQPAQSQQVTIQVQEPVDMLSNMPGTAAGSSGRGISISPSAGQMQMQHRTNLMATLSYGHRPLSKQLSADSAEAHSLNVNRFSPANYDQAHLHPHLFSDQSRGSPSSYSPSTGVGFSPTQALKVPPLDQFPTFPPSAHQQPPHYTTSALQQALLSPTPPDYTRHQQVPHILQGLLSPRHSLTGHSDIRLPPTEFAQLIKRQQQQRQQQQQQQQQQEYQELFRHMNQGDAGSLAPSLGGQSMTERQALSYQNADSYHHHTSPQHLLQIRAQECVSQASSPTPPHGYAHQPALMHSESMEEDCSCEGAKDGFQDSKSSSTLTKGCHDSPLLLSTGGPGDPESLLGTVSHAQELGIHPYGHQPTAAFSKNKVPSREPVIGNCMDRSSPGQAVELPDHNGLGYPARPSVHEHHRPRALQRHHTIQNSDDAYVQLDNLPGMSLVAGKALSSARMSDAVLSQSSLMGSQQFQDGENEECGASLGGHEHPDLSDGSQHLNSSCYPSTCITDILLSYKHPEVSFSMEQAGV
T3 sequence (Q9H0K1 whole entry): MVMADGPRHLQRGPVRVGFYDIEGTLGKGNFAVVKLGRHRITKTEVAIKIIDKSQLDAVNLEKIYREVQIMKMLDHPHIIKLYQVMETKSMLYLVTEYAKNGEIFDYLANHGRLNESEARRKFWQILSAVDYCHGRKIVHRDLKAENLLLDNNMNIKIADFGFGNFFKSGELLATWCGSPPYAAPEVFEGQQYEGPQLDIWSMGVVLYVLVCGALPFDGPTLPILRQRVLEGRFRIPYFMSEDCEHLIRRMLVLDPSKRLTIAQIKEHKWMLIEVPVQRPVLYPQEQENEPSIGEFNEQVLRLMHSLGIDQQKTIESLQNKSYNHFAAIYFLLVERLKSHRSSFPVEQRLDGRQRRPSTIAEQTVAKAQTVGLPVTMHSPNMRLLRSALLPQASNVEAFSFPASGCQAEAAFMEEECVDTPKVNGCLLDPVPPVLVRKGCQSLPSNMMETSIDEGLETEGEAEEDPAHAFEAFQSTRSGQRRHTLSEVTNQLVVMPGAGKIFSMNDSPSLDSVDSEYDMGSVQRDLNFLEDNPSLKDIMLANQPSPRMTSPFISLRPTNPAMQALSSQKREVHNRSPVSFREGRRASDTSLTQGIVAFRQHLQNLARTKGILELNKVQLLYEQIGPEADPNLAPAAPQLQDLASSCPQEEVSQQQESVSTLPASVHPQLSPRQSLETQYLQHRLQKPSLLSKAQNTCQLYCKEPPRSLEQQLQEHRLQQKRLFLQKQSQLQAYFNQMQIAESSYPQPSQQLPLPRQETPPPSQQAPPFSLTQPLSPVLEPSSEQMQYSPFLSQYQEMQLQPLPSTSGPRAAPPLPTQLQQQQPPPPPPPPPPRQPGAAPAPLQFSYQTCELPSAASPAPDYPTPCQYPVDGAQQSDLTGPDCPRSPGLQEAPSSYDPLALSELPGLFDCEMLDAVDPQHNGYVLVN

SMILES | EC50 [1] [nM] | IC50 (SIK3) [nM] | IC50 (SIK1) [nM] | IC50 (SIK2) [nM]
CCNC(=O)c1c(OC)cc(-c2cnc3cc(-c4ccnnc4)ccn23)cc1OC(F)F [compound 145, 2-(difluoromethoxy)-N-ethyl-6-methoxy-4-(7-pyridazin-4-ylimidazo[1,2-a]pyridin-3-yl)benzamide] | 1000 to 5000 | 10 to 100 | 10 to 100 | 10 to 100
COc1cc(-n2cnc3cc(-c4cncnc4)ccc32)cc(OC)c1C(=O)NCC(F)(F)F [compound 104, 2,6-dimethoxy-4-(5-pyrimidin-5-ylbenzimidazol-1-yl)-N-(2,2,2-trifluoroethyl)benzamide] | – | 100 to 500 | > 500 | 100 to 500
COc1cc(-n2cnc3cc(-c4cnn(C)c4)ccc32)cc(OC)c1C(=O)N1CC(C)(O)C1 [compound 217, [2,6-dimethoxy-4-[5-(1-methylpyrazol-4-yl)benzimidazol-1-yl]phenyl]-(3-hydroxy-3-methyl-azetidin-1-yl)methanone] | – | 10 to 100 | 10 to 100 | 10 to 100
COc1cc(-n2cnc3cc(-c4cnn(C)c4)ccc32)cc(OC(C)C)c1C(=O)NC1CC1 [Cpd 119, N-cyclopropyl-2-isopropoxy-6-methoxy-4-[5-(1-methylpyrazol-4-yl)benzimidazol-1-yl]benzamide] | – | 100 to 500 | 100 to 500 | 100 to 500
COc1cc(-n2cnc3cc(-c4cnn(C)c4)ccc32)cc(OC)c1C(=O)N1CCC(F)CC1 [compound 197, [2,6-dimetlioxy-4-[5-(1-methylpyrazol-4-yl)benzimidazol-1-yl]phenyl]-(4-fluoro-1-piperidyl)methanone] | – | > 500 | > 500 | > 500
CCn1cc(-c2ccc3c(c2)ncn3-c2cc(OC)c(C(=O)N(C)CCOC)c(OC)c2)cn1 [compound 27, 4-[5-(1-ethylpyrazol-4-yl)benzimidazol-1-yl]-2,6-dimethoxy-N-(2-methoxyethyl)-N-methyl-benzamide] | – | > 500 | > 500 | > 500
COc1ncc(-c2ccc3c(c2)ncn3-c2cc(OC)c(C(=O)NCC(F)(F)F)c(OC)c2)cn1 [compound 105, 2,6-dimethoxy-4-[5-(2-methoxypyrimidin-5-yl)benzimidazol-1-yl]-N-(2,2,2-trifluoroethyl)benzamide] | – | 100 to 500 | > 500 | > 500
COc1cc(-n2cnc3cc(-c4ccn(C)n4)ccc32)cc(OC)c1C(=O)NCC(F)(F)F [compound 89, 2,6-dimethoxy-4-[5-(1-methylpyrazol-3-yl)benzimidazol-1-yl]-N-(2,2,2-trifluoroethyl)benzamide] | – | 10 to 100 | 10 to 100 | 10 to 100
COc1cc(-n2cnc3cc(-c4cnn(C)c4)ccc32)cc(OC)c1C(=O)NC[C@@H]1COCCO1 [compound 67, N-[[(2R)-1,4-dioxan-2-yl]methyl]-2,6-dimethoxy-4-[5-(1-methylpyrazol-4-yl)benzimidazol-1-yl]benzamide] | – | 100 to 500 | 100 to 500 | 100 to 500
COc1cc(-c2cnc3cc(-c4cncnc4C(C)C)ccn23)cc(OC)c1C(=O)NCC(F)(F)F [compound 253, 4-[7-(4-isopropylpyrimidin-5-yl)imidazo[1,2-a]pyridin-3-yl]-2,6-dimethoxy-N-(2,2,2-trifluoroethyl)benzamide] | – | 100 to 500 | > 500 | > 500
COc1cc(-n2cnc3cc(-c4ccc(N(C)C)nc4)ccc32)cc(OC)c1C(=O)NCC(F)(F)F [compound 37, 4-[5-[6-(dimethylamino)-3-pyridyl]benzimidazol-1-yl]-2,6-dimethoxy-N-(2,2,2-trifluoroethyl)benzamide] | – | 100 to 500 | 100 to 500 | 100 to 500
COc1cc(-n2cnc3cc(-c4cnn(C)c4)ccc32)cc(OC)c1C(=O)NCc1ccn(C)n1 [compound 61] | – | > 500 | > 500 | 100 to 500
COCCCNC(=O)c1c(OC)cc(-n2cnc3cc(-c4cnn(C)c4)ccc32)cc1OC [compound 60] | – | 100 to 500 | 10 to 100 | 10 to 100
COc1cc(-n2cnc3cc(-c4cnn(C)c4)ccc32)cc(OC)c1C(=O)NC1COC1 [compound 92, 2,6-dimethoxy-4-[5-(1-methylpyrazol-4-yl)benzimidazol-1-yl]-N-(oxetan-3-yl)benzamide] | – | 10 to 100 | 10 to 100 | 10 to 100
COc1cc(-c2cnc3cc(-c4cnn(C)c4)ccn23)cc(OC)c1C(=O)N1CCC(F)(F)CC1 [compound 212, (4,4-difluoro-1-piperidyl)-[2,6-dimethoxy-4-[7-(1-methylpyrazol-4-yl)imidazo[1,2-a]pyridin-3-yl]phenyl]methanone] | – | 100 to 500 | 100 to 500 | 10 to 100
COc1cc(-n2cnc3cc(-c4cnn(C)c4)ccc32)cc(OC)c1C(=O)N1CC2(C1)CS(=O)(=O)C2 [compound 195, [2,6-dimethoxy-4-[5-(1-methylpyrazol-4-yl)benzimidazol-1-yl]phenyl]-(2,2-dioxo-2λ^6-thia-6-azaspiro[3.3]heptan-6-yl)methanone] | – | 100 to 500 | 100 to 500 | 100 to 500
COc1cc(-c2cnc3cc(-c4cnn(C)c4)ccn23)cc(OC)c1C(=O)NC(C(C)C)C(F)(F)F (stereo not shown) [compound 200] | – | 10 to 100 | 10 to 100 | 10 to 100
COc1cc(-n2cnc3cc(-c4cnn(C)c4)ccc32)cc(OC)c1C(=O)NC(C)C(F)F (stereo not shown) [compound 91, N-(2,2-difluoro-1-methyl-ethyl)-2,6-dimethoxy-4-[5-(1-methylpyrazol-4-yl)benzimidazol-1-yl]benzamide] | – | 10 to 100 | 10 to 100 | 10 to 100
COc1cc(-c2cnc3cc(-c4cnn(C)c4)ccn23)cc(OC)c1C(=O)N1CCC(F)(F)C1 [compound 211, (3,3-difluoropyrrolidin-1-yl)-[2,6-dimethoxy-4-[7-(1-methylpyrazol-4-yl)imidazo[1,2-a]pyridin-3-yl]phenyl]methanone] | – | 10 to 100 | 10 to 100 | 10 to 100
COc1cc(-n2cnc3cc(-c4cnccn4)ccc32)cc(OC)c1C(=O)NCC(F)(F)F [compound 128, 2,6-dimethoxy-4-(5-pyrazin-2-ylbenzimidazol-1-yl)-N-(2,2,2-trifluoroethyl)benzamide] | – | 100 to 500 | > 500 | > 500
COc1cc(-n2cnc3cc(-n4nc(C)cc4C)ccc32)cc(OC)c1C(=O)NCC(F)(F)F [Cpd 165, 4-[5-(3,5-dimethylpyrazol-1-yl)benzimidazol-1-yl]-2,6-dimethoxy-N-(2,2,2-trifluoroethyl)benzamide] | – | > 500 | > 500 | > 500
